Source: paper PMC13080237, “Functional divergence of protein kinase A regulatory subunit Iβ variants: the importance of N3A motifs in PKA regulation” (The Febs Journal, 2025)

Experiments:
RIβ (RIβ A268; His-RIβ) [1] = molecular target: T1, RIβ (RIβ A268; His-RIβ) (Homo sapiens, UniProt P31321, A268R); test: fluorescence polarization, direct titration; format: binding; details: labelled compound; 0.5 nM 8-Fluo-cAMP, RIβ R268 dilution series; 20 mM MOPS pH 7.4, 150 mM NaCl, room temperature; residue 268 in bovine RIα numbering (270 in human RIβ); read-out: affinity
T1 construct: gene PRKAR1B; full-length, N-terminal His-tag (pQTEV vector), E. coli TP2000 cells, Ni-NTA; dimer; 380 residues as printed

RIβ (RIβ A268; His-RIβ) [2] = molecular target: T2, RIβ (RIβ A268; His-RIβ) (Homo sapiens, UniProt P31321); test: fluorescence polarization, direct titration; format: binding; details: labelled compound; 0.5 nM 8-Fluo-cAMP, RIβ dilution series; 20 mM MOPS pH 7.4, 150 mM NaCl, room temperature; read-out: affinity
T2 construct: gene PRKAR1B; full-length, N-terminal His-tag (pQTEV vector), E. coli TP2000 cells, Ni-NTA; dimer; 380 residues as printed

[3] = molecular target: GFP2 fusion of human PKA Cα (BRET acceptor) (human) (UniProt P17612); test: FRET or BRET; BRET2 in living HEK293 cells; RLuc8 fused to the R subunit, GFP2 fused to the C subunit; 37 °C, HBSS w/o Mg2+/Ca2+ pH 7.4, coelenterazine 400a; time courses and end points (20 min); cells treated with buffer, 100 nM isoproterenol, or 50 uM forskolin + 100 uM IBMX

T2 sequence (P31321 2-381): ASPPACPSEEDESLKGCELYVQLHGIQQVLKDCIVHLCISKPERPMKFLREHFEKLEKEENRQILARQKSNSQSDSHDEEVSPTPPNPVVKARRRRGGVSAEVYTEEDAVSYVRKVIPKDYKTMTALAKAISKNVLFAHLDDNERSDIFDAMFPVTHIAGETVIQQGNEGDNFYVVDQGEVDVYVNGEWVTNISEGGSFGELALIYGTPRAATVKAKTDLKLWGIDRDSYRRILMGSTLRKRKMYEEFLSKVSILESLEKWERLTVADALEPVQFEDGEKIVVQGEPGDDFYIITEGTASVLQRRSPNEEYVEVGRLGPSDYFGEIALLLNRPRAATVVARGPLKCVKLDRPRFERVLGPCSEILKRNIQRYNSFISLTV
T1 sequence (P31321 2-381 A268R): as the sequence (P31321 2-381) above, with A267R counted along it

Substance	Kd (RIβ (RIβ A268; His-RIβ) [1]) [nM]	Kd (RIβ (RIβ A268; His-RIβ) [2]) [nM]	maximal cAMP-induced dissociation of the holoenzyme (%) [3] [%]
8‐(2‐[fluoresceinyl]aminoethylthio)‐cAMP [8-Fluo-cAMP]	4	4	
RLuc8 fusion of human RIβ R268 (BRET donor) (natural protein)			30
